This is an account of results in article PMC8080530, “Glucocorticoid receptor Thr524 phosphorylation by MINK1 induces interactions with 14-3-3 protein regulators” (The Journal of Biological Chemistry, 2021).

Non-standard residues stand in square brackets, D forms with d. Residues, ends and D or L forms follow the SMILES beside them. pT = C[C@@H](OP(=O)(O)O)[C@H](N)C(=O)O; pS = N[C@@H](COP(=O)(O)O)C(=O)O

The first experiment concerns the target T1, 14-3-3ζ (Homo sapiens, UniProt P63104).
T1 construct: Full-length expression and purification of 14-3-3; made in house; host or cells: E. coli BL21 (DE3)STAR
T1 sequence (P63104 1-245): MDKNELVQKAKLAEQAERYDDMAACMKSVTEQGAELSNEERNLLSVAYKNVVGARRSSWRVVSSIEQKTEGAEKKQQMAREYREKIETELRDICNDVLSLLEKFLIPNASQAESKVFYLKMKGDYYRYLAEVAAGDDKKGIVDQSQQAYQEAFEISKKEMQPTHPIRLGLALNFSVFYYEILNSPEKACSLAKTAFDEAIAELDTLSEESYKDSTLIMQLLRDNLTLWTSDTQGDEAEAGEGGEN
Put plainly: FP assay with GR phosphorylated peptides and 14-3-3ζ. The format is binding. To be noted: FP, doubly phosphorylated 31-mer peptides, triplicates; read-out: Kd with 14-3-3ζ (values in nM). On the procedure: After 30-min incubation at RT, the plates were read on a plate reader PHERAstar (BMG LABTECH GmbH) for FP signal using […] and standard excitation (485 nm) and emission (520 nm). Measurements were performed as triplicates. Binding data were fit to a standard Hill equation using the software Genedata Screener. The figures were made using the software GraphPad Prism 8. FP data were expressed as millipolarization (mP) units, and the dynamic range (ΔmP) was the difference of the signals from the bound peptide and free peptide. Errors are the standard error of the fit.
With `CC[C@H](C)[C@H](NC(=O)[C@@H](NC(=O)[C@@H](N)CCCCN)[C@@H](C)O)C(=O)N[C@H](C(=O)N1CCC[C@H]1C(=O)N[C@@H](C)C(=O)N[C@H](C(=O)N[C@@H](CC(C)C)C(=O)N1CCC[C@H]1C(=O)N[C@@H](CCC(N)=O)C(=O)N[C@@H](CC(C)C)C(=O)N[C@H](C(=O)N1CCC[C@H]1C(=O)NCC(=O)NCC(=O)NCC(=O)NCC(=O)NCC(=O)N[C@@H](CCCNC(=N)N)C(=O)N[C@@H](CO)C(=O)N[C@@H](Cc1ccc(O)cc1)C(=O)N[C@@H](C)C(=O)N[C@@H](CCC(N)=O)C(=O)N[C@@H](CO)C(=O)N[C@@H](COP(=O)(O)O)C(=O)N[C@@H](C)C(=O)N[C@@H](CC(N)=O)C(=O)N[C@@H](CC(C)C)C(=O)N[C@@H](CC(C)C)C(=O)N[C@@H](CS)C(=O)N[C@@H](Cc1ccccc1)C(=O)O)[C@@H](C)O)[C@@H](C)OP(=O)(O)O)C(C)C` [GR_R614A] (H-KTIVPA[pT]LPQLTPGGGGGRSYAQS[pS]ANLLCF-OH), the Kd was 220 nM.

The experiment is the same for the next values; noted with them: read-out: PKd with 14-3-3ζ (converted).
Turning to `CC[C@H](C)[C@H](NC(=O)[C@@H](NC(=O)[C@@H](N)CCCCN)[C@@H](C)O)C(=O)N[C@H](C(=O)N1CCC[C@H]1C(=O)N[C@@H](C)C(=O)N[C@H](C(=O)N[C@@H](CC(C)C)C(=O)N1CCC[C@H]1C(=O)N[C@@H](CCC(N)=O)C(=O)N[C@@H](CC(C)C)C(=O)N[C@H](C(=O)N1CCC[C@H]1C(=O)NCC(=O)NCC(=O)NCC(=O)NCC(=O)NCC(=O)N[C@@H](CCCNC(=N)N)C(=O)N[C@@H](CO)C(=O)N[C@@H](Cc1ccc(O)cc1)C(=O)N[C@@H](CCCNC(=N)N)C(=O)N[C@@H](C)C(=O)N[C@@H](CO)C(=O)N[C@@H](COP(=O)(O)O)C(=O)N[C@@H](C)C(=O)N[C@@H](CC(N)=O)C(=O)N[C@@H](CC(C)C)C(=O)N[C@@H](CC(C)C)C(=O)N[C@@H](CS)C(=O)N[C@@H](Cc1ccccc1)C(=O)O)[C@@H](C)O)[C@@H](C)OP(=O)(O)O)C(C)C` [GR_Q615A] (H-KTIVPA[pT]LPQLTPGGGGGRSYRAS[pS]ANLLCF-OH), the Kd is 39.8 nM. For the molecule `CC[C@H](C)[C@H](NC(=O)[C@@H](NC(=O)[C@@H](N)CCCCN)[C@@H](C)O)C(=O)N[C@H](C(=O)N1CCC[C@H]1C(=O)N[C@@H](C)C(=O)N[C@H](C(=O)N[C@@H](CC(C)C)C(=O)N1CCC[C@H]1C(=O)N[C@@H](CCC(N)=O)C(=O)N[C@@H](CC(C)C)C(=O)N[C@H](C(=O)N1CCC[C@H]1C(=O)NCC(=O)NCC(=O)NCC(=O)NCC(=O)NCC(=O)N[C@@H](C)C(=O)N[C@@H](CO)C(=O)N[C@@H](Cc1ccc(O)cc1)C(=O)N[C@@H](CCCNC(=N)N)C(=O)N[C@@H](CCC(N)=O)C(=O)N[C@@H](CO)C(=O)N[C@@H](COP(=O)(O)O)C(=O)N[C@@H](C)C(=O)N[C@@H](CC(N)=O)C(=O)N[C@@H](CC(C)C)C(=O)N[C@@H](CC(C)C)C(=O)N[C@@H](CS)C(=O)N[C@@H](Cc1ccccc1)C(=O)O)[C@@H](C)O)[C@@H](C)OP(=O)(O)O)C(C)C` [GR_R611A] (H-KTIVPA[pT]LPQLTPGGGGGASYRQS[pS]ANLLCF-OH), the Kd is 50.1 nM.

As for `CC[C@H](C)[C@H](NC(=O)[C@@H](NC(=O)[C@@H](N)CCCCN)[C@@H](C)O)C(=O)N[C@H](C(=O)N1CCC[C@H]1C(=O)N[C@@H](C)C(=O)N[C@H](C(=O)N[C@@H](CC(C)C)C(=O)N1CCC[C@H]1C(=O)N[C@@H](CCC(N)=O)C(=O)N[C@@H](CC(C)C)C(=O)N[C@H](C(=O)N1CCC[C@H]1C(=O)NCC(=O)NCC(=O)NCC(=O)NCC(=O)NCC(=O)N[C@@H](CCCNC(=N)N)C(=O)N[C@@H](C)C(=O)N[C@@H](Cc1ccc(O)cc1)C(=O)N[C@@H](CCCNC(=N)N)C(=O)N[C@@H](CCC(N)=O)C(=O)N[C@@H](CO)C(=O)N[C@@H](COP(=O)(O)O)C(=O)N[C@@H](C)C(=O)N[C@@H](CC(N)=O)C(=O)N[C@@H](CC(C)C)C(=O)N[C@@H](CC(C)C)C(=O)N[C@@H](CS)C(=O)N[C@@H](Cc1ccccc1)C(=O)O)[C@@H](C)O)[C@@H](C)OP(=O)(O)O)C(C)C` [GR_S612A] (H-KTIVPA[pT]LPQLTPGGGGGRAYRQS[pS]ANLLCF-OH), the Kd is 31.6 nM.

On to `CC[C@H](C)[C@H](NC(=O)[C@@H](NC(=O)[C@@H](N)CCCCN)[C@@H](C)O)C(=O)N[C@H](C(=O)N1CCC[C@H]1C(=O)N[C@@H](C)C(=O)N[C@H](C(=O)N[C@@H](CC(C)C)C(=O)N1CCC[C@H]1C(=O)N[C@@H](CCC(N)=O)C(=O)N[C@@H](CC(C)C)C(=O)N[C@H](C(=O)N1CCC[C@H]1C(=O)NCC(=O)NCC(=O)NCC(=O)NCC(=O)NCC(=O)N[C@@H](CCCNC(=N)N)C(=O)N[C@@H](CO)C(=O)N[C@@H](Cc1ccc(O)cc1)C(=O)N[C@@H](CCCNC(=N)N)C(=O)N[C@@H](CCC(N)=O)C(=O)N[C@@H](C)C(=O)N[C@@H](COP(=O)(O)O)C(=O)N[C@@H](C)C(=O)N[C@@H](CC(N)=O)C(=O)N[C@@H](CC(C)C)C(=O)N[C@@H](CC(C)C)C(=O)N[C@@H](CS)C(=O)N[C@@H](Cc1ccccc1)C(=O)O)[C@@H](C)O)[C@@H](C)OP(=O)(O)O)C(C)C` [GR_S616A] (H-KTIVPA[pT]LPQLTPGGGGGRSYRQA[pS]ANLLCF-OH), for which the Kd was 63.1 nM.

Take `CC[C@H](C)[C@H](NC(=O)[C@H](C)NC(=O)[C@@H](N)CCCCN)C(=O)N[C@H](C(=O)N1CCC[C@H]1C(=O)N[C@@H](C)C(=O)N[C@H](C(=O)N[C@@H](CC(C)C)C(=O)N1CCC[C@H]1C(=O)N[C@@H](CCC(N)=O)C(=O)N[C@@H](CC(C)C)C(=O)N[C@H](C(=O)N1CCC[C@H]1C(=O)NCC(=O)NCC(=O)NCC(=O)NCC(=O)NCC(=O)N[C@@H](CCCNC(=N)N)C(=O)N[C@@H](CO)C(=O)N[C@@H](Cc1ccc(O)cc1)C(=O)N[C@@H](CCCNC(=N)N)C(=O)N[C@@H](CCC(N)=O)C(=O)N[C@@H](CO)C(=O)N[C@@H](COP(=O)(O)O)C(=O)N[C@@H](C)C(=O)N[C@@H](CC(N)=O)C(=O)N[C@@H](CC(C)C)C(=O)N[C@@H](CC(C)C)C(=O)N[C@@H](CS)C(=O)N[C@@H](Cc1ccccc1)C(=O)O)[C@@H](C)O)[C@@H](C)OP(=O)(O)O)C(C)C` [GR_T519A] (H-KAIVPA[pT]LPQLTPGGGGGRSYRQS[pS]ANLLCF-OH): the Kd is 63.1 nM. `CC[C@H](C)[C@H](NC(=O)[C@@H](NC(=O)[C@@H](N)CCCCN)[C@@H](C)O)C(=O)N[C@H](C(=O)N1CCC[C@H]1C(=O)N[C@@H](C)C(=O)N[C@@H](C)C(=O)N[C@@H](CC(C)C)C(=O)N1CCC[C@H]1C(=O)N[C@@H](CCC(N)=O)C(=O)N[C@@H](CC(C)C)C(=O)N[C@H](C(=O)N1CCC[C@H]1C(=O)NCC(=O)NCC(=O)NCC(=O)NCC(=O)NCC(=O)N[C@@H](CCCNC(=N)N)C(=O)N[C@@H](CO)C(=O)N[C@@H](Cc1ccc(O)cc1)C(=O)N[C@@H](CCCNC(=N)N)C(=O)N[C@@H](CCC(N)=O)C(=O)N[C@@H](CO)C(=O)N[C@@H](COP(=O)(O)O)C(=O)N[C@@H](C)C(=O)N[C@@H](CC(N)=O)C(=O)N[C@@H](CC(C)C)C(=O)N[C@@H](CC(C)C)C(=O)N[C@@H](CS)C(=O)N[C@@H](Cc1ccccc1)C(=O)O)[C@@H](C)O)C(C)C` [GR_T524A-pS617] (H-KTIVPAALPQLTPGGGGGRSYRQS[pS]ANLLCF-OH): the Kd was 126000 nM.

With `CC[C@H](C)[C@H](NC(=O)[C@@H](NC(=O)[C@@H](N)CCCCN)[C@@H](C)O)C(=O)N[C@H](C(=O)N1CCC[C@H]1C(=O)N[C@@H](C)C(=O)N[C@H](C(=O)N[C@@H](CC(C)C)C(=O)N1CCC[C@H]1C(=O)N[C@@H](CCC(N)=O)C(=O)N[C@@H](CC(C)C)C(=O)N[C@@H](C)C(=O)N1CCC[C@H]1C(=O)NCC(=O)NCC(=O)NCC(=O)NCC(=O)NCC(=O)N[C@@H](CCCNC(=N)N)C(=O)N[C@@H](CO)C(=O)N[C@@H](Cc1ccc(O)cc1)C(=O)N[C@@H](CCCNC(=N)N)C(=O)N[C@@H](CCC(N)=O)C(=O)N[C@@H](CO)C(=O)N[C@@H](COP(=O)(O)O)C(=O)N[C@@H](C)C(=O)N[C@@H](CC(N)=O)C(=O)N[C@@H](CC(C)C)C(=O)N[C@@H](CC(C)C)C(=O)N[C@@H](CS)C(=O)N[C@@H](Cc1ccccc1)C(=O)O)[C@@H](C)OP(=O)(O)O)C(C)C` [GR_T529A] (H-KTIVPA[pT]LPQLAPGGGGGRSYRQS[pS]ANLLCF-OH), the Kd was 50.1 nM. Turning to `CC[C@H](C)[C@H](NC(=O)[C@@H](NC(=O)[C@@H](N)CCCCN)[C@@H](C)O)C(=O)N[C@@H](C)C(=O)N1CCC[C@H]1C(=O)N[C@@H](C)C(=O)N[C@H](C(=O)N[C@@H](CC(C)C)C(=O)N1CCC[C@H]1C(=O)N[C@@H](CCC(N)=O)C(=O)N[C@@H](CC(C)C)C(=O)N[C@H](C(=O)N1CCC[C@H]1C(=O)NCC(=O)NCC(=O)NCC(=O)NCC(=O)NCC(=O)N[C@@H](CCCNC(=N)N)C(=O)N[C@@H](CO)C(=O)N[C@@H](Cc1ccc(O)cc1)C(=O)N[C@@H](CCCNC(=N)N)C(=O)N[C@@H](CCC(N)=O)C(=O)N[C@@H](CO)C(=O)N[C@@H](COP(=O)(O)O)C(=O)N[C@@H](C)C(=O)N[C@@H](CC(N)=O)C(=O)N[C@@H](CC(C)C)C(=O)N[C@@H](CC(C)C)C(=O)N[C@@H](CS)C(=O)N[C@@H](Cc1ccccc1)C(=O)O)[C@@H](C)O)[C@@H](C)OP(=O)(O)O` [GR_V521A] (H-KTIAPA[pT]LPQLTPGGGGGRSYRQS[pS]ANLLCF-OH), the Kd is 39.8 nM.
